These results are taken from patent US10815224B2, “Monocyclic heteroaryl substituted compounds” (Bristol-Myers Squibb Company, priority 2016, dated 2020).

One may read the IC50 as the midpoint of a concentration-inhibition curve.

Data set [1] concerns the target T1, protease-activated receptor type 4 (PAR4) (Homo sapiens, UniProt Q96RI0).
T1 sequence (Q96RI0 18-385): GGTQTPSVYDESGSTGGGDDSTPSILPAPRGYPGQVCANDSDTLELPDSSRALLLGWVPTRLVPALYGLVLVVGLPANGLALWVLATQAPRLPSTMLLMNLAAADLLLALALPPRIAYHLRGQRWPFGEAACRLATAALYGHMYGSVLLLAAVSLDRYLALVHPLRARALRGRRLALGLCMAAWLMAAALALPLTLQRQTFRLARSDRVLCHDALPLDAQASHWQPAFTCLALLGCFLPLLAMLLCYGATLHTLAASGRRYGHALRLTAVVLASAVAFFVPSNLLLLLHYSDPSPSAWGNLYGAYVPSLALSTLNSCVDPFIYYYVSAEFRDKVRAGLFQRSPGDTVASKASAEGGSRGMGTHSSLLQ
The following applies: abstract of Lee et al. 2001; cited from earlier work.

Another data set relates to ACS patients. The settings on record: TRACER phase III trial; cited from earlier work.
A further data set addresses T2, PAR4 (Homo sapiens, UniProt Q96RI0).
T2 construct: expressed in transfected cells; host or cells: HEK293 PAR4 Clone 1.2A (BMS Arctic ID 383940)
T2 sequence (Q96RI0 18-385): T1 sequence (Q96RI0 18-385)
Nature of the data set: PAR4 FLIPR assay: calcium mobilization in PAR4-expressing HEK293 cells. In kind it is cell-based. From the text: The FLIPR assay is an exemplary in vitro assay for measuring the activity of the PAR4 antagonists of the present invention. In this assay, intracellular calcium mobilization is induced in PAR4 expressing cells by a PAR4 agonist and calcium mobilization is monitored.
HEK293 cells stably expressing PAR4 were generated by a standard method of transfection of human PAR4 (F2R23) cDNA expression vector and selected based on PAR4 protein expression or mRNA expression. […] Therefore, the same cells were also used to determine selectivity against PAR1 and agonist activity for both receptors.
FLIPR-based calcium mobilization assay in HEK293 cells was used to measure PAR4 antagonism, agonism, and selectivity against PAR1. […] Counter screens for agonist activity and PAR1 antagonist activity were also performed. […] Cells were plated overnight prior to the experiment in a black 384-well Purecoat Amine clear bottom plate (Becton Dickinson Biosciences, San Jose, Calif.) at 10,000 cells/well in 30 μL growth medium and incubated in a humidified chamber at 37° C. with 5% CO2 overnight. Prior to compound addition, the cell medium was replaced with 40 μL of 1× calcium and magnesium-containing Hank's Balanced Saline Solution (HBSS) (with 20 mM HEPES) and 1:1000 diluted fluorescent calcium indicator (Codex Biosolutions, Gaithersburg, Md.). After a 30 minute incubation period at 37° C., and a further 30 minute incubation and equilibration period at room temperature, 20 μL test compound (diluted in 1×HBSS buffer) was added at various concentrations at 0.17% dimethyl sulfoxide (DMSO) final concentration. Changes in fluorescence intensity were measured using a Functional Drug Screening System (FDSS, Hamamatsu, Japan) to determine agonist activities. The cells were then incubated for 30 minutes at room temperature followed by addition of 20 μL of agonist peptide for antagonist activity measurement. […] Compound potency was derived from 11-point concentration-response curves.
For orientation: Calcium flux is commonly read through the fluorescence of an indicator in the cells.

`CCOC(=O)c1ccc(-c2nn(Cc3ccccc3)c3ccccc23)cc1` [YD-3, ethyl 4-(1-benzyl-1H-indazol-3-yl)benzoate]: the “Inhibition of PAR4-dependent platelet activation” value in data set [1] is “selective and potent inhibitor”. `CCOC(=O)N[C@@H]1CC[C@@H]2[C@@H](C1)C[C@H]1C(=O)O[C@H](C)[C@H]1[C@H]2/C=C/c1ccc(-c2cccc(F)c2)cn1` [vorapaxar]: in the data set with ACS patients, the Cardiovascular events result is “did not significantly reduce cardiovascular events” and the “Risk of major bleeding” value is listed as “significantly increased the risk of major bleeding”.

`Cc1cc(-c2ncc(-c3cc(O)cc(F)c3)s2)c2ncc(OC(F)F)nc2c1` [Example 26, 3-(2-(2-(difluoromethoxy)-7-methylquinoxalin-5-yl)thiazol-5-yl)-5-fluorophenol]: the IC50 at PAR4 came to 23 nM.

For `Cc1cc(-c2nccs2)c2ncc(OC(F)F)nc2c1` [Example 34, 2-(2-(difluoromethoxy)-7-methylquinoxalin-5-yl)thiazole], on PAR4, the IC50 came to 760 nM. Consider `COCc1cnc2c(-c3ncc(-c4cc(F)ccc4O)s3)cc(C)cc2n1` [Example 50, 4-fluoro-2-(2-(2-(methoxymethyl)-7-methylquinoxalin-5-yl)thiazol-5-yl)phenol], for which, on PAR4, the IC50 came to 5.7 nM. With `Cc1cc(-c2ncc(-c3ccccc3O)s2)c2ncc(OC(F)F)nc2c1` [Example 30, 2-(2-(2-(difluoromethoxy)-7-methylquinoxalin-5-yl)thiazol-5-yl)phenol], the IC50 at PAR4 worked out at 8.8 nM.
